Source: ChEMBL document CHEMBL1201862, “PubChem BioAssay data set” (2004)
Active and inactive are the calls of the source.

Tests used:
[1] = HPDE-C7 pancreatic duct cell viability loss – fluorescence, HTS (AID 430); format: functional, cell-based; settings: Homo sapiens
[2] = viability loss of HPDE-C7K cells – cell-based, fluorescence, HTS, primary screen (AID 431); format: functional; settings: Homo sapiens
NS3 = NS3 (Hepatitis C virus, UniProt A3EZJ3); assay: PubChem AID 2173; parameters: species or system Hepacivirus hominis
NS3, sequence (A3EZJ3 whole entry): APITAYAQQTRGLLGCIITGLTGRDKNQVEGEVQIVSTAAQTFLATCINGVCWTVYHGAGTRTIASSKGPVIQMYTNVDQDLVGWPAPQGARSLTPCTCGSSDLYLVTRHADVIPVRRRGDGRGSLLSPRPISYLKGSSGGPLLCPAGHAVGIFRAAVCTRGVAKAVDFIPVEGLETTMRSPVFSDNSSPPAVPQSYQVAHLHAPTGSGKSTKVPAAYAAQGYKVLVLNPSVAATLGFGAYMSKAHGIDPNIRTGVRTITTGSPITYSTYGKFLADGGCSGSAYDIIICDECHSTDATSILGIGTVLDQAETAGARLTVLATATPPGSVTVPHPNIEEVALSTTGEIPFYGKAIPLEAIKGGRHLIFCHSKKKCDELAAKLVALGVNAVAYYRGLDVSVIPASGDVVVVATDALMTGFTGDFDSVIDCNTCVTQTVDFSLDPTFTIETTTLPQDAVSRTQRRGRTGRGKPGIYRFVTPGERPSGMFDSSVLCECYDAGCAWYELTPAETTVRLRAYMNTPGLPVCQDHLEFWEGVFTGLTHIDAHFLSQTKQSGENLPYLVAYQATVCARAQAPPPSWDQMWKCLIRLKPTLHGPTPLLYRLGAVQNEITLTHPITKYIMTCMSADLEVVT

[3] = target: Induced myeloid leukemia cell differentiation protein Mcl-1 (Homo sapiens, UniProt Q07820); format: functional
Induced myeloid leukemia cell differentiation protein Mcl-1, sequence (Q07820 whole entry): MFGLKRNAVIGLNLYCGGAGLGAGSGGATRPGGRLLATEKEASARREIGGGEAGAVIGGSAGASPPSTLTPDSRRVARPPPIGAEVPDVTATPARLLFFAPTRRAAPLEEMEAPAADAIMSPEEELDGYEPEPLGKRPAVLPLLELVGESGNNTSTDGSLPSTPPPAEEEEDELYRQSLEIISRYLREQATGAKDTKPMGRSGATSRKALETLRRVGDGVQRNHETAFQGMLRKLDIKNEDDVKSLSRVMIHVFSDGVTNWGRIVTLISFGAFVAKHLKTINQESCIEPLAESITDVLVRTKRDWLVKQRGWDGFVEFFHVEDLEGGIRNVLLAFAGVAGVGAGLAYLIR

Vero [4] = assay: viability of Vero cells under compound – cytotoxicity control for flavivirus capping enzyme inhibitors (AID 588742); format: functional; settings: Chlorocebus sabaeus
INS1 = assay: INS-1E survival protection against cytokine death – cell-based, luminescence, retest, dose response (AID 449756); format: functional; settings: Rattus norvegicus;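 note: cell death triggered by IL-1 beta plus TNF-alpha plus IFN-gamma mixture; protective hits raise ATP signal compared with cytokine alone wells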
Vero [5] = assay: cells; format: functional; settings: Chlorocebus sabaeus
[6] = target: T1, Voltage-gated N-type calcium channel alpha-1B subunit/Amyloid beta A4 precursor protein-binding family A member 1 (Homo sapiens, UniProt Q00975+Q02410); format: protein assay
T1 sequence (Q00975 whole entry): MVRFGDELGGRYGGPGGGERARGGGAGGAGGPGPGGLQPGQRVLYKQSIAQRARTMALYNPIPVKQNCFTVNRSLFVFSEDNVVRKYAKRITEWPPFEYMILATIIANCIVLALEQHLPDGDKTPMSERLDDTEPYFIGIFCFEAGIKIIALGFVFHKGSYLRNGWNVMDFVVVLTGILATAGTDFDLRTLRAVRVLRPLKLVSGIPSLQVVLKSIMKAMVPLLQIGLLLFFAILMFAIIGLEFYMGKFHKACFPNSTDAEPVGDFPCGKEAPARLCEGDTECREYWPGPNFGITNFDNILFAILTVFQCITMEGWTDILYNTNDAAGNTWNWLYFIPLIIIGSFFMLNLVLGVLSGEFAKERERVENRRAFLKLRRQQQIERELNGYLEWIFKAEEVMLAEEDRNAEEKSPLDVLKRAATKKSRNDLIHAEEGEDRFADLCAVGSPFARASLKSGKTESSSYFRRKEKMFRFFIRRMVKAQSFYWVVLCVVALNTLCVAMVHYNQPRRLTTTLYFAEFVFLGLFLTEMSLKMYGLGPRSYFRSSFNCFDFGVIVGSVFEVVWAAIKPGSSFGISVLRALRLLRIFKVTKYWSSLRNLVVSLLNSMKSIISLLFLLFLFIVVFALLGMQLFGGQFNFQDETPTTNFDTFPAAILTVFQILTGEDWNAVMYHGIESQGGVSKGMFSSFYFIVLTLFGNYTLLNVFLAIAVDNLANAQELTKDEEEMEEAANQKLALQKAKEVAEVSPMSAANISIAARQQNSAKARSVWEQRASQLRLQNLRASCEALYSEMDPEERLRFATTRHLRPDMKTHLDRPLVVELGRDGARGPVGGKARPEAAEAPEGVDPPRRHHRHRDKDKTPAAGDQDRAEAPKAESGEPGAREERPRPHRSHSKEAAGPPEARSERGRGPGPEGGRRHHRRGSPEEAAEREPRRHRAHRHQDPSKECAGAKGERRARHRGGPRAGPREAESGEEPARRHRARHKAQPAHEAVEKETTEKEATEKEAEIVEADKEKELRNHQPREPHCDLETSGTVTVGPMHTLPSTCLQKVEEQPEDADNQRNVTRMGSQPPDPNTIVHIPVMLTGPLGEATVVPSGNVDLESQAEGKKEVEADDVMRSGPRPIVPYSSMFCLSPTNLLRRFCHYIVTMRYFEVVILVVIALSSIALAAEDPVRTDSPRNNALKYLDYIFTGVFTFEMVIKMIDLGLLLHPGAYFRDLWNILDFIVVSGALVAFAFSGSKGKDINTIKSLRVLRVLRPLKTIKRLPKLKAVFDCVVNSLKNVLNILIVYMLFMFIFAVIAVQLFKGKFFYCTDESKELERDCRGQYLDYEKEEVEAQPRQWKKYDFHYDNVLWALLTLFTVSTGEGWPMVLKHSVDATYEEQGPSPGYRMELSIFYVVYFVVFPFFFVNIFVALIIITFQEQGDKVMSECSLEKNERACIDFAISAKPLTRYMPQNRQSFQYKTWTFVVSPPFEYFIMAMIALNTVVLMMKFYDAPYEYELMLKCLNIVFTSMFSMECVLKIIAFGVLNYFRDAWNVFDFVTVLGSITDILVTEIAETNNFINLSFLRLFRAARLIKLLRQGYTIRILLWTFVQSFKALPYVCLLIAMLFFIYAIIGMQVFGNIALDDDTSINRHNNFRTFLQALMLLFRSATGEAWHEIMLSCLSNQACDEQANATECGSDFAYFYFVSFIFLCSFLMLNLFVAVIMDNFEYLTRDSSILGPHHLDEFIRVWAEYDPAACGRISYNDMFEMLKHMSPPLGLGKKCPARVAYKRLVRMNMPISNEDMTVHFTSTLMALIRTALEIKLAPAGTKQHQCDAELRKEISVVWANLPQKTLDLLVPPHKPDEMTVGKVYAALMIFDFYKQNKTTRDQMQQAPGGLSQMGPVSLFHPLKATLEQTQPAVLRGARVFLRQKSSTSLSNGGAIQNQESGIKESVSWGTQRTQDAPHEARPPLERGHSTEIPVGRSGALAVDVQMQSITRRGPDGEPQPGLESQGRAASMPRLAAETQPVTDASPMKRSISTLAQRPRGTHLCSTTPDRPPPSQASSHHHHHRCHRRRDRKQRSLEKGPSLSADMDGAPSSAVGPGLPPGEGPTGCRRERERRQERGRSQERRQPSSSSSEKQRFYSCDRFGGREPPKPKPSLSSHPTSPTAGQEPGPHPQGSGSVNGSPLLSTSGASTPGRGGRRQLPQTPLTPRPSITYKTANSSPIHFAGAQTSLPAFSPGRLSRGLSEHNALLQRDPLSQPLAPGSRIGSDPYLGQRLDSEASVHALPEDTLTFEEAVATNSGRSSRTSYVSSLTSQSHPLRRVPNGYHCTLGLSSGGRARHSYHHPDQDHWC
T1 sequence (Q02410 whole entry): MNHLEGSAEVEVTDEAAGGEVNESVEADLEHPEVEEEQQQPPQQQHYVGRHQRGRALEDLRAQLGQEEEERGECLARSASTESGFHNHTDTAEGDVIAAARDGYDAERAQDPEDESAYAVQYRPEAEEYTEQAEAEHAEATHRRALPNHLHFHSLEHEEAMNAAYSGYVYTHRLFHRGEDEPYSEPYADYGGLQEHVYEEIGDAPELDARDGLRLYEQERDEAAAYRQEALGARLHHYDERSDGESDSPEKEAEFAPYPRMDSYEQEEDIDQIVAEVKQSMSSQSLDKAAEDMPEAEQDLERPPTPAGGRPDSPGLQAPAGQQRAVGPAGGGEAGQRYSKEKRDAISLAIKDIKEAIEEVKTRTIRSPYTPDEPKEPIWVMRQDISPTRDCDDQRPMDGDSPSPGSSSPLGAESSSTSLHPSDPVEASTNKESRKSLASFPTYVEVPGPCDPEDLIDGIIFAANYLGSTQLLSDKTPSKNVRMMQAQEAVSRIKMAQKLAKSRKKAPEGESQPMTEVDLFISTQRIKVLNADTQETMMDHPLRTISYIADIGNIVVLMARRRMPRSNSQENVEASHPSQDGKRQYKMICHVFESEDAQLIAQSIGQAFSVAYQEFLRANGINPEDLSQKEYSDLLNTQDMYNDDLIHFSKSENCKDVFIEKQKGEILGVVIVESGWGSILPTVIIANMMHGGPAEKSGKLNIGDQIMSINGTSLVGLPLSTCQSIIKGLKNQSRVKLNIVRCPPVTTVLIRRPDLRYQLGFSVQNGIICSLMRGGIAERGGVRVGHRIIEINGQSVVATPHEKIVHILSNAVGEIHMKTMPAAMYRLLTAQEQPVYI

[7] = target: T1, Voltage-gated N-type calcium channel alpha-1B subunit/Amyloid beta A4 precursor protein-binding family A member 1; format: protein assay; remark: listed apart in the source
Cytochrome P450 2C19 = Cytochrome P450 2C19 (Homo sapiens, UniProt P33261); assay: Cytochrome panel assay with activity outcomes. Panel member name: p450-cyp2c19 Compounds with AC50 equal or less than 10 uM are considered active; format: functional; settings: read-out: AC50
Cytochrome P450 2C19, sequence (P33261 whole entry): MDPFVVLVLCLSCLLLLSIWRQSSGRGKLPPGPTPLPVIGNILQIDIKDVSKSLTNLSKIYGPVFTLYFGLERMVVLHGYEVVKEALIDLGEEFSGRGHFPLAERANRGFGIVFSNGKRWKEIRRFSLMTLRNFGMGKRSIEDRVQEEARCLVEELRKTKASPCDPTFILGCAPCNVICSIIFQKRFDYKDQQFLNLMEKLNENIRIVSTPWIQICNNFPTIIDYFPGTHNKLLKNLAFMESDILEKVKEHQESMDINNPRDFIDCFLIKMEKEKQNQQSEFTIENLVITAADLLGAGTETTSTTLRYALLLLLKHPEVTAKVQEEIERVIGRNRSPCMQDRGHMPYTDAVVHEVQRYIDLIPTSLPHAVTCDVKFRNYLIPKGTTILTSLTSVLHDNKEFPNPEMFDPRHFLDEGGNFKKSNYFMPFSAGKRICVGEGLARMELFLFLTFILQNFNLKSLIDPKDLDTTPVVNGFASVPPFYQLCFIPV

[8] = target: 26S proteasome non-ATPase regulatory subunit 14 (Homo sapiens, UniProt O00487); assay: inhibition of proteasome subunit RPN11 – biochemical, fluorescence polarization, uHTS hits, confirmation (AID 602368); format: functional
26S proteasome non-ATPase regulatory subunit 14, sequence (O00487 whole entry): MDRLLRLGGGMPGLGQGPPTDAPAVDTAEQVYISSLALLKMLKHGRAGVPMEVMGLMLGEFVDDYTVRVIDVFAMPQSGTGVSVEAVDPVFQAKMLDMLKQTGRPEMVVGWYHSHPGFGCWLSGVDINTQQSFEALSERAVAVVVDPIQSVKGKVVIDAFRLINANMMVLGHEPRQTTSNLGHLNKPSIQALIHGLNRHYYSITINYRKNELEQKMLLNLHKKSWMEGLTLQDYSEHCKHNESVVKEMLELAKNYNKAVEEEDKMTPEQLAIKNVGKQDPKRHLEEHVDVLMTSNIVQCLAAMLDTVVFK

[9] = target: 72 kDa type IV collagenase (Homo sapiens, UniProt P08253); assay: Dose Response validation of uHTS RPN11 inhibitor hits using a MMP-2 Fluorescence assay.; format: functional
Prothrombin = Prothrombin (Bos taurus, UniProt P00735); assay: thrombin protease inhibitors – biochemical, fluorescence polarization, uHTS hits, dose response (AID 602369); format: functional
Cytochrome P450 3A4 = Cytochrome P450 3A4 (Homo sapiens, UniProt P08684);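 note: CYP3A4 tested as one member of a cytochrome P450 panel screen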
[10] = luciferase reporter signal suppression in cells – H4 neuroglioma cells, luminescence, dose response (AID 1990); format: functional, cell-based
[11] = Luminescence Cell-Based Dose Response HTS to Identify Inhibitors of 5'UTR Stem-Loop Driven Prion Protein mRNA Translation in H4 Neuroglioblastoma Cells. [Related pubchem assays: 1827 (Project Summary), 1813 (Primary HTS)]; format: functional
[12] = alpha-synuclein stem-loop luciferase translation blockers – H4 neuroglioma cells, luminescence, confirmation (AID 1988); format: functional, cell-based
[13] = target: Voltage-dependent T-type calcium channel subunit alpha-1H (Homo sapiens, UniProt O95180); format: functional;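 note: channel activity triggered by adding a high calcium stimulation buffer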
[14] = Luminescence Cell-Based Dose Response to Identify Activators of 5'UTR Stem-Loop Driven Prion Protein mRNA Translation in H4-C Neuroglioblastoma Cells. [Related pubchem assays: 1829 (Project Summary), 1814 (Primary HTS)]; format: functional
[15] = Luminescence Cell-Based Dose Confirmation HTS to Identify Activators of 5'UTR Stem-Loop Driven Alpha-Synuclein mRNA Translation in H4 Neuroglioblastoma Cells. [Related pubchem assays: 1829 (Project Summary), 1814 (Primary HTS)]; format: functional
[16] = Luminescence Cell-Based Dose Response HTS to Identify Activators of Luciferase Translation or Activity in H4 […] Cells. [Related pubchem assays: 1829 (Project Summary), 1814 (Primary HTS)]; format: functional
H4 = assay: Luminescence Cell-Based Dose Response HTS to Identify Activators of 5'UTR Stem-Loop Driven Prion Protein mRNA Translation in H4 Neuroglioblastoma Cells. [Related pubchem assays: 1829 (Project Summary), 1814 (Primary HTS)]; format: functional; settings: Homo sapiens
[17] = Luminescence Cell-Based Dose Response to Identify Activators of Luciferase Translation or Activity in H4-C Neuroglioblastoma Cells. [Related pubchem assays: 1829 (Project Summary), 1814 (Primary HTS)]; format: functional
[18] = Luminescence Cell-Based Dose Confirmation to Identify Activators of 5'UTR Stem-Loop Driven Alpha-Synuclein mRNA Translation in H4 Neuroglioblastoma Cells. [Related pubchem assays: 1829 (Project Summary), 1814 (Primary HTS)]; format: functional
[19] = target: T2, Microphthalmia-associated transcription factor (Homo sapiens, UniProt O75030); assay: reducers of TRPM1 reporter luminescence, concentration series – cell-based, SK-MEL-5, cherry-picked, set 3, MITF inhibitor project, dose response (AID 493073); format: functional;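 note: SK-MEL-5 melanoma cells with luciferase driven by the MITF target TRPM1 promoter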
T2 sequence (O75030 whole entry): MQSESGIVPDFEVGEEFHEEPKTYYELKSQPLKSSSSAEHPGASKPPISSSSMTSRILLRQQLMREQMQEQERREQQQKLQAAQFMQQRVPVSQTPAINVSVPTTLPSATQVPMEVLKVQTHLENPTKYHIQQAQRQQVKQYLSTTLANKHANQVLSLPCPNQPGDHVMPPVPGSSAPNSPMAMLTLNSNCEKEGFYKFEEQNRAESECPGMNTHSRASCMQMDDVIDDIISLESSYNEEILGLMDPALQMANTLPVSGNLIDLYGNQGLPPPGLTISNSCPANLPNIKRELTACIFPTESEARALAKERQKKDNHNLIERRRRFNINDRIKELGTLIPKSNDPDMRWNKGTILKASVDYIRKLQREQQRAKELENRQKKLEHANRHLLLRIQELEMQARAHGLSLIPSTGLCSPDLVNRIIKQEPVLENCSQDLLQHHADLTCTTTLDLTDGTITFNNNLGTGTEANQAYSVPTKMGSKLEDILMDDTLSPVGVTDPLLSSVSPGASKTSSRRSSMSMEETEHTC

[20] = target: T3, Replicative DNA helicase DnaB (Mycobacterium tuberculosis, UniProt P9WMR3); assay: DnaB intein splicing inhibitors, dose response, biochemical, cell-free fluorescence (AID 449749); format: functional
T3 sequence (P9WMR3 whole entry): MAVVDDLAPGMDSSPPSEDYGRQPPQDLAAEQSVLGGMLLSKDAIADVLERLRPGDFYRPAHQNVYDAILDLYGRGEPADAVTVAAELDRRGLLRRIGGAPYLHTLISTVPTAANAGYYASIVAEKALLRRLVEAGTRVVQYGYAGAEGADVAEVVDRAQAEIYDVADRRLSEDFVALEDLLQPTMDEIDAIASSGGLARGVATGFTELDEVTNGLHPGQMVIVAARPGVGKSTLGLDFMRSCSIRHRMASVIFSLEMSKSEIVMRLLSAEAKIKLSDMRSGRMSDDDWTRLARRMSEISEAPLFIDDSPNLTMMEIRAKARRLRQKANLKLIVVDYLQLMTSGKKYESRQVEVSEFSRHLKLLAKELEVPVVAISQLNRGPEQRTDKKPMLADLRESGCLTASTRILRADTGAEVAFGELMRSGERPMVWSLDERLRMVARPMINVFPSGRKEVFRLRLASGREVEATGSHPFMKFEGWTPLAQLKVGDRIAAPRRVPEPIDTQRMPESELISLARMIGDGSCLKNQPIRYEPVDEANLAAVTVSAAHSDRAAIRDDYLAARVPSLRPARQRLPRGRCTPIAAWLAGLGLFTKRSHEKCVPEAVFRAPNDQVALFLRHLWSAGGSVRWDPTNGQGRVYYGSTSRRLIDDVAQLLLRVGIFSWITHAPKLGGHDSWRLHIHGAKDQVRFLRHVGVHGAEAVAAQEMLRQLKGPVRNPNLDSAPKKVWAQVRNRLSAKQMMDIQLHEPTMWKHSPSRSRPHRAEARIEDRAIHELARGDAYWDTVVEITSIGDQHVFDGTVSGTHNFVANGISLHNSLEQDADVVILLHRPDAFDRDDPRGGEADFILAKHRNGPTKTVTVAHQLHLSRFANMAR

Protein RecA = target: T4, Protein RecA (Mycobacterium tuberculosis, UniProt P9WHJ3); assay: Fluorescence Cell-Free Homogeneous Dose Retest to Identify Inhibitors of RecA-Intein Splicing Activity. [Related pubchem assays (depositor defined):AID2097, AID2223, AID489010, AID492950]; format: functional
T4 sequence (P9WHJ3 whole entry): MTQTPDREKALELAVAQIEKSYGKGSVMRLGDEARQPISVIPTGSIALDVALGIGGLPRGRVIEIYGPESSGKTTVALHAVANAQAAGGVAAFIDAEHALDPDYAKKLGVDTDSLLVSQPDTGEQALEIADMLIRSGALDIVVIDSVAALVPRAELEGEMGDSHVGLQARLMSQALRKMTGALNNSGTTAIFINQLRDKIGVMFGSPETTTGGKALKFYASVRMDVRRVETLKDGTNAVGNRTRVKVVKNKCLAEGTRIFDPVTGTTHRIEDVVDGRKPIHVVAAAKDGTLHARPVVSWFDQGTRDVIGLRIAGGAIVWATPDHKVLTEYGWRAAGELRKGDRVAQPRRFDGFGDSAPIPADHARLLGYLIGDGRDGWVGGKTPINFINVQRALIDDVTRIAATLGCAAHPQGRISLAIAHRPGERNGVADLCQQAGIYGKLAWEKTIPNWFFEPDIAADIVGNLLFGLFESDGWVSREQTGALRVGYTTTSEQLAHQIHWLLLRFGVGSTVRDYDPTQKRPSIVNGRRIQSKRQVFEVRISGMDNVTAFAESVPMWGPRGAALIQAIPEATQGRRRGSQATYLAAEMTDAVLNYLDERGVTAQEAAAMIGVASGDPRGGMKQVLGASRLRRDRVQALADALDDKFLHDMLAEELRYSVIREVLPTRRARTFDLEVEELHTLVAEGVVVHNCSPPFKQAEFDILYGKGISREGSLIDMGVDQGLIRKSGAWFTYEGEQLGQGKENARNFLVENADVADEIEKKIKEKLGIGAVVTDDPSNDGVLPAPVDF

In the case of `Cn1c(CCN2CCCCCC2)nc2cc(NC(=O)Nc3ccccc3)ccc21`, the EC50 [1] is reported as > 20 µM (not active) and the EC50 [2] is reported as > 20 µM (not active).
With `COc1ccccc1NC(=O)c1cc2cc(Br)ccc2cc1O` the IC50 (NS3) was > 4.03 µM (active), the IC50 [3] was 2.63 µM (active) and the CC50 (Vero [4]) was 4.04 µM (active). The AC50 (INS1) was 6.21 µM (active) and the CC50 (Vero [5]) was 2.72 µM (active).
In the case of `COc1cc2cc3c(N)c(C(=O)Nc4sc(C)c(C)c4C#N)sc3nc2cc1OC`, the IC50 [6] is reported as 11.8 µM (active), the IC50 (NS3) is reported as > 36.3 µM (not active) and the IC50 [7] is reported as > 50 µM (inactive). For the same molecule, the IC50 [3] was 1.26 µM (active), the AC50 (Cytochrome P450 2C19) was 15.8 µM (inconclusive) and the IC50 [8] was 48.3 µM (active). For the same molecule, the IC50 [9] was 8.14 µM (active), the IC50 (Prothrombin) was 25.8 µM (active) and the AC50 (Cytochrome P450 3A4) was 8.91 µM (inconclusive).
With `COc1cc(C)c(C(C)C)cc1S(=O)(=O)n1cnc(C)c1` the EC50 [10] was > 120 µM (not active), the EC50 [11] was > 120 µM (not active) and the EC50 [12] was 9.12 µM (active). The EC50 [1] was 3.47 µM (active), the EC50 [2] was 4.11 µM (active) and the EC50 [13] was 52.3 µM (active).
With `O=C(CCl)Nc1cccc(-c2cnc3ccccc3n2)c1` the EC50 [14] was > 12 µM (not active), the EC50 [15] was < 0.1 µM (active) and the EC50 [16] was 2.98 µM (active). The EC50 (H4) was > 60 µM (not active), the EC50 [17] was 0.561 µM (active) and the EC50 [18] was 0.7 µM (active). For the same molecule, the AC50 [19] was 4.02 µM (active), the AC50 [20] was 53.1 µM (active) and the EC50 (Protein RecA) was 13.3 µM (active).
